Among the data in patent publication US10150728B2, “Alkylene derivatives” (Shionogi & Co., Ltd., priority 2013, dated 2018) are IC50 values, retold here.

Sequence of recombinant human ACC2 (O00763 27-2458): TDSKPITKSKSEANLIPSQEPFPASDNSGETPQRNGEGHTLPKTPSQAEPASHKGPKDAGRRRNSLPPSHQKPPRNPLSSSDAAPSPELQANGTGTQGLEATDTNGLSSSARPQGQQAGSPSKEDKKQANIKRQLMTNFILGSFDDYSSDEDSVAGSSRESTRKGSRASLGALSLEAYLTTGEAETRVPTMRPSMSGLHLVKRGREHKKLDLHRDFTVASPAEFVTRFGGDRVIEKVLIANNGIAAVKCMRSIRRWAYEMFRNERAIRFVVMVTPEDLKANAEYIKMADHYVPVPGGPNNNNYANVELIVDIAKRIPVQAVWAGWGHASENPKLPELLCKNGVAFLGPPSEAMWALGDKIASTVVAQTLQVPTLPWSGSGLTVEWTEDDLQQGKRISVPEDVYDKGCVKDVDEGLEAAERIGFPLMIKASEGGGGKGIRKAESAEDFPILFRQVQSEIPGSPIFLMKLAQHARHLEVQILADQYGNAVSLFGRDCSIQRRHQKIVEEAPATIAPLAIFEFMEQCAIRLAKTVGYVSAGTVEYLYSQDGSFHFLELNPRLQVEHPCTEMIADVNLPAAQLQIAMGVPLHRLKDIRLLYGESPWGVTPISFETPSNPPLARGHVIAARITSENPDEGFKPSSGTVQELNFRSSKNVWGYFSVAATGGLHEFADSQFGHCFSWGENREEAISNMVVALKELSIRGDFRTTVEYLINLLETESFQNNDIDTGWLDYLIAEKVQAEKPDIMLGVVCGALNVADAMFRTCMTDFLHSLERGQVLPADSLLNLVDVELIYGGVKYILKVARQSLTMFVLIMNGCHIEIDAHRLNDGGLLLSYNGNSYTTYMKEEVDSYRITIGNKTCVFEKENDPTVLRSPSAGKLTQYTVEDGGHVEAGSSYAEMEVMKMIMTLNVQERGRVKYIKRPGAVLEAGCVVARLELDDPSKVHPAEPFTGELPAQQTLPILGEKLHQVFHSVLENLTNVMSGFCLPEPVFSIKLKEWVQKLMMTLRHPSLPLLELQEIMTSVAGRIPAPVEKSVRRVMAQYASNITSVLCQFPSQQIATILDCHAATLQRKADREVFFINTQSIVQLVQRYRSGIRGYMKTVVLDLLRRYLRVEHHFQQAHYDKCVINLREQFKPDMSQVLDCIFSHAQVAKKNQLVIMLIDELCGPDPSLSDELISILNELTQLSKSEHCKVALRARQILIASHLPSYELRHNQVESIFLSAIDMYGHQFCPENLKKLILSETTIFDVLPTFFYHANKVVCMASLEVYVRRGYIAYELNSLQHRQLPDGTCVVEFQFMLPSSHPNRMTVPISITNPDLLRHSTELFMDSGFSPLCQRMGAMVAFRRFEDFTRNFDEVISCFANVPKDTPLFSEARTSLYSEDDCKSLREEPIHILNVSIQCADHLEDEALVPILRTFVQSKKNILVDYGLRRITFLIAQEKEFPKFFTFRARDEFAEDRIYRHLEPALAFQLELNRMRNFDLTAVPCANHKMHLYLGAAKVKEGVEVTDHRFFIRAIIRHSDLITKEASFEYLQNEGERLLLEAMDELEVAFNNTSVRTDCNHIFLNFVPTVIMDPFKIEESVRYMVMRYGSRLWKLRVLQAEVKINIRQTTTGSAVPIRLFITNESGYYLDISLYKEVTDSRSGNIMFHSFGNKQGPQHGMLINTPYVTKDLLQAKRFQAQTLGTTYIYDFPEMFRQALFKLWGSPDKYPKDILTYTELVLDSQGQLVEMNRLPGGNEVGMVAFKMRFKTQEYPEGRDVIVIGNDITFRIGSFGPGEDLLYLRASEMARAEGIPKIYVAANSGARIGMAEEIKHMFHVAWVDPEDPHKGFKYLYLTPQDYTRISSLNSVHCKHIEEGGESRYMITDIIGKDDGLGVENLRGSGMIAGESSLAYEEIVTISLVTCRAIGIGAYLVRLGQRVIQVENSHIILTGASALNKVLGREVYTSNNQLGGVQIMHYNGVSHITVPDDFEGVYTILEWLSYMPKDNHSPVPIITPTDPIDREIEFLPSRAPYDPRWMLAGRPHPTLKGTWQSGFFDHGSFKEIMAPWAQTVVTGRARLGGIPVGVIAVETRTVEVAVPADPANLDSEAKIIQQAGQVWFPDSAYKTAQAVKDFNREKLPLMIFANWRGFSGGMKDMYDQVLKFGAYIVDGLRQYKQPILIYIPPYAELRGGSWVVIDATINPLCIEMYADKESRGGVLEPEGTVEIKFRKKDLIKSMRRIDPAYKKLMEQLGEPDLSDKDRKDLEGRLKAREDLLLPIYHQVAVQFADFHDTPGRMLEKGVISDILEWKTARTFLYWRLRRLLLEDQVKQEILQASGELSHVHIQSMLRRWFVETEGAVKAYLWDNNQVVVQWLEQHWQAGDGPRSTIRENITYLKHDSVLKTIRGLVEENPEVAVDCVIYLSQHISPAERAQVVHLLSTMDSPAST

The test has as its target recombinant human ACC2 (Homo sapiens (Human), UniProt O00763). The test is described as follows: Measurement of inhibitory activity on human ACC2 (MALDI-TOF MS, acetyl CoA to malonyl CoA conversion). The test is classed as biochemical. To be noted: Table 154. The text has this:
Preparation 1: Preparation of Recombinant Human ACC2
After a cDNA encoding human ACC2 (27 amino acid residue to 2458 amino acid residues from the N-terminus) was cloned from human kidney cDNA library (Clontech), human ACC2 gene containing His-tag sequence at 5′ terminus was inserted into pFastBac1 (Invitrogen). Recombinant baculovirus was generated using Bac-to-Bac baculovirus expression system (Invitrogen) according to the manufacturer's protocol. To express human ACC2, Sf-9 cells were infected with recombinant baculovirus. After infected cells were disrupted, the filtrated lysate was subjected to Ni-affinity chromatography and anion-exchange chromatography. The fractions containing human ACC2 protein were pooled as recombinant human ACC2 solution.
The Measurement of Inhibitory Activity on Human ACC1 and the ACC2
Recombinant human ACC1 and recombinant human ACC2, which were prepared by the method mentioned above, were preincubated with assay buffer solution (50 mM HEPES-KOH (pH 7.4), 10 mM magnesium chloride, 6-10 mM potassium citrate, 4 mM reduced form of glutathione, 1.5 mg/ml bovine serum albumin) for one hour. Then, 0.2 μL of each this invention compound solution (in DMSO) were dispensed to 384-well microplate, 5 μL of the preincubated enzyme solution and 5 μL of substrate solution (50 mM HEPES-KOH (pH 7.4), 1 mM ATP, 0.8 mM acetyl CoA and 25-50 mM potassium bicarbonate) were added to microplate. After centrifugation and shaking, the reaction mixtures were incubated in a humidified box at room temperature for 1 to 3 hours. After the incubation, the enzyme reactions were stopped by the addition of EDTA. Then, after the samples were cocrystallized with CHCA (α-cyano-4-hydroxy cinnamic acid) matrices on MALDI target plate, by using the matrix assist laser […] time-of-flight mass spectrometer (MALDI-TOF MS), samples were measured in reflector negative mode. Deprotonated ions of acetyl CoA (AcCoA) of substrate and malonyl CoA (MalCoA) of the reaction product were detected, then, the conversion rates of acetyl CoA to malonyl CoA was calculated by the intensity of [MalCoA-H]−/(Intensity of [MalCoA-H]−+Intensity of [AcCoA-H]−) using each signal strength. […] In addition, potassium citrate concentrations in assay buffer solution, potassium hydrogen carbonate concentrations in substrate solution and incubation time were adjusted by each lot of enzyme.
With `CCCc1ccc(Oc2ccc(OC[C@H](C)NC(C)=O)cn2)c(Cl)c1` [Compound I-004], the IC50 was 3730 nM.
Then `CCCc1ccc(Oc2ccc(OC[C@H](C)NC(C)=O)cc2)c(Cl)c1` [Compound I-005], with 184 nM.
In the case of `CCCc1ccc(Oc2ccc(OC[C@H](C)NC(N)=O)cc2)c(Cl)c1` [Compound I-006], the IC50 turned out to be 348 nM.
As for `CCCc1ccc(Oc2ccc(OC[C@H](C)NC(=O)NCC)cc2)c(Cl)c1` [Compound I-007], the IC50 amounted to 1390 nM.
Regarding `CC(=O)N[C@@H](C)CC(=O)c1ccc(Oc2ccc(OCC3CC3)cc2Cl)nc1` [Compound I-008], the IC50 stood at 220 nM.
As to `CCCc1ccc(Oc2ccc(C(=O)C[C@H](C)NC(C)=O)nc2)c(Cl)c1` [Compound I-009], the IC50 was determined as 1060 nM.
The value for `CCCc1ccc(Oc2ccc(OCC[C@H](C)NC(C)=O)cc2)c(Cl)c1` [Compound I-010] was 1010 nM; that for `CCCc1ccc(Oc2ccc(O[C@@H](C)[C@H](C)NC(C)=O)nc2)c(Cl)c1` [Compound I-011] was 120 nM; that for `CC(=O)N[C@@H](C)COc1ccc(Oc2ccc3nc(C(C)C)sc3c2Cl)cn1` [Compound I-012] was 64 nM.
As to `CC(=O)N[C@@H](C)COc1ccc(Oc2ccc3nc(C(C)C)sc3c2C#N)cn1` [Compound I-013], the IC50 stood at 395 nM.
Turning to `CC(=O)N[C@@H](C)[C@H](C)Oc1ccc(Oc2ccc3nc(C(C)C)sc3c2Cl)cn1` [Compound I-014], the IC50 was determined as 759 nM.
With `CCC(C)(C)c1ccc(Oc2ccc(OC[C@H](C)NC(C)=O)nc2)c(Cl)c1` [Compound I-016], the IC50 is 400 nM.
As to `CC(=O)N[C@@H](C)COc1ccc(Oc2ccc3nc(C(C)C)sc3c2F)cn1` [Compound I-018], the IC50 is 75 nM.
Take `CCCc1ccc(Oc2cnc(OC[C@H](C)NC(C)=O)cn2)c(Cl)c1` [Compound I-021]: the half-inhibitory concentration (IC50) was 502 nM.
Regarding `CC(=O)N[C@@H](C)COc1ccc(Oc2ccc3c(c2Cl)CCN(C(=O)OC(C)(C)C)C3)cn1` [Compound I-022], the IC50 is 1250 nM.
Turning to `CC(=O)N[C@@H](C)COc1ccc(Oc2ccc3c(c2Cl)CCN(c2ncc(F)cn2)C3)cn1` [Compound I-023], the IC50 is 38 nM.
The value for `CC(C)c1nc2ccc(Oc3ccc(OC[C@H](C)NC(N)=O)nc3)c(Cl)c2s1` [Compound I-024] was 133 nM; that for `CC(C)c1nc2ccc(Oc3ccc(OC[C@H](C)NC(=O)CO)nc3)c(Cl)c2s1` [Compound I-025] was 652 nM.
`CC(=O)N[C@@H](C)COc1cnc(Oc2ccc3nc(C(C)C)sc3c2F)cn1` [Compound I-026]: the IC50 was determined as 20 nM.
For the compound `CC(=O)N[C@@H](C)COc1cnc(Oc2ccc3nc(C(C)(C)O)sc3c2Cl)cn1` [Compound I-027], the IC50 turned out to be 378 nM.
Then `CC(=O)N[C@@H](C)COc1cnc(Oc2ccc3nc(C(C)(F)F)sc3c2Cl)cn1` [Compound I-028], with 28 nM; and `CC(=O)N[C@@H](C)COc1ccc(Oc2cc(F)c3nc(C(C)C)sc3c2Cl)cn1` [Compound I-029], with 68 nM; and `CC(=O)N[C@@H](C)COc1cnc(Oc2ccc3nc(C(C)C)oc3c2F)cn1` [Compound I-031], with 52 nM.
The value for `CC(=O)N[C@@H](C)COc1cnc(Oc2c(F)cc3nc(C(C)C)sc3c2F)cn1` [Compound I-032] was 52 nM.
Consider `CCC(F)(F)c1nc2ccc(Oc3cnc(OC[C@H](C)NC(C)=O)cn3)c(Cl)c2s1` [Compound I-033], for which the IC50 is 50 nM.
Turning to `CC(=O)N[C@@H](C)COc1cnc(Oc2ccc3nc(C4CC4)sc3c2F)cn1` [Compound I-034], the IC50 was 49 nM.
For the compound `CC(=O)N[C@@H](C)COc1cnc(Oc2ccc3nc(C4(C)CC4)sc3c2Cl)cn1` [Compound I-035], the IC50 worked out at 102 nM.
Turning to `CC(=O)N[C@@H](C)COc1cnc(Oc2ccc3nc(C(C)(F)F)sc3c2F)cn1` [Compound I-036], the IC50 was 15 nM.
For the compound `CC(=O)N[C@@H](C)COc1cnc(Oc2ccc3nc(C(C)C)sc3c2Cl)cn1` [Compound I-038], the IC50 amounted to 72 nM.
Then `CCOc1nc2ccc(Oc3cnc(OC[C@H](C)NC(C)=O)cn3)c(Cl)c2s1` [Compound I-039], with 16 nM; and `CC(=O)N[C@@H](C)COc1cnc(Oc2ccc3nc(C(C)(F)F)sc3c2C#N)cn1` [Compound I-041], with 102 nM.
In the case of `CC(=O)N[C@@H](C)CO[C@H]1CC[C@H](Oc2ccc3nc(C(C)C)sc3c2F)CC1` [Compound I-042], the half-inhibitory concentration (IC50) came to 15 nM.
The value for `CC(=O)N[C@@H](C)COc1cnc(Oc2ccc3nc(C(C)(F)F)oc3c2F)cn1` [Compound I-043] was 93 nM; that for `CC(=O)N[C@@H](C)CO[C@H]1CC[C@@H](Oc2ccc3nc(C(C)C)sc3c2F)CC1` [Compound I-044] was 756 nM.
On to `CCOc1nc2ccc(Oc3cnc(OC[C@H](C)NC(C)=O)cn3)c(F)c2s1` [Compound I-045], for which the IC50 stood at 8 nM.
As to `CC(=O)N[C@@H](C)CO[C@H]1CC[C@H](Oc2ccc3nc(C(C)C)sc3c2Cl)CC1` [Compound I-046], the IC50 turned out to be 213 nM.
Take `CC(=O)N[C@@H](C)CO[C@H]1CC[C@H](Oc2ccc3nc(C(C)(C)O)sc3c2Cl)CC1` [Compound I-047]: the IC50 is 336 nM.
With `CC(=O)N[C@@H](C)[C@H](C)Oc1cnc(Oc2ccc3nc(C(C)C)sc3c2F)cn1` [Compound I-048], the IC50 amounted to 83 nM.
On to `CC(=O)N[C@@H](C)[C@@H](C)Oc1cnc(Oc2ccc3nc(C(C)C)sc3c2F)cn1` [Compound I-049], for which the IC50 came out at 134 nM.
The value for `CC(=O)N[C@@H](C)COc1cnc(Oc2ccc3nc(C4(F)CC4)sc3c2F)cn1` [Compound I-050] was 10 nM; that for `CC(=O)N[C@@H](C)CO[C@H]1CC[C@H](Oc2ccc3nc(C(C)C)sc3c2C#N)CC1` [Compound I-051] was 84 nM.
The value for `CC(=O)N[C@@H](C)CO[C@H]1CC[C@H](Oc2ccc3nc(C(C)(F)F)sc3c2Cl)CC1` [Compound I-052] was 265 nM.
Consider `CC(=O)N[C@@H](C)CO[C@H]1CC[C@H](Oc2ccc3nc(C(C)(F)F)sc3c2F)CC1` [Compound I-053], for which the IC50 stood at 12 nM.
In the case of `CCOc1nc2ccc(O[C@H]3CC[C@H](OC[C@H](C)NC(C)=O)CC3)c(Cl)c2s1` [Compound I-054], the IC50 turned out to be 15 nM.
The value for `CCOc1nc2ccc(O[C@H]3CC[C@H](OC[C@H](C)NC(C)=O)CC3)c(F)c2s1` [Compound I-055] was 13 nM; that for `CC(=O)N[C@@H](C)[C@H](C)Oc1cnc(Oc2ccc3nc(C(C)(F)F)sc3c2F)cn1` [Compound I-056] was 57 nM.
The value for `CC(=O)N[C@@H](C)[C@@H](C)Oc1cnc(Oc2ccc3nc(C(C)(F)F)sc3c2F)cn1` [Compound I-057] was 166 nM; that for `CCOc1nc2ccc(Oc3cnc(O[C@@H](C)[C@H](C)NC(C)=O)cn3)c(F)c2s1` [Compound I-059] was 29 nM.
As for `CCOc1nc2ccc(Oc3cnc(O[C@H](C)[C@H](C)NC(C)=O)cn3)c(F)c2s1` [Compound I-061], the IC50 turned out to be 115 nM.
As for `CC(=O)N[C@@H](C)CO[C@H]1CC[C@H](Oc2ccc3nc(C(C)C)oc3c2F)CC1` [Compound I-062], the IC50 was 24 nM.
The value for `CCc1nsc2c(Cl)c(Oc3cnc(OC[C@H](C)NC(C)=O)cn3)ccc12` [Compound I-063] was 128 nM; that for `CC(=O)N[C@@H](C)CO[C@H]1CC[C@H](Oc2ccc3nc(C(C)C)oc3c2Cl)CC1` [Compound I-064] was 1120 nM.
As for `CCOc1nc2cc(Cl)c(Oc3cnc(OC[C@H](C)NC(C)=O)cn3)cc2s1` [Compound I-065], the IC50 is 89 nM.
Turning to `CC(=O)N[C@@H](C)CO[C@H]1CC[C@H](Oc2ccc3sc(C(C)C)nc3c2Cl)CC1` [Compound I-066], the IC50 came to 1300 nM.
For `CCOc1nc2ccc(Oc3cnc(OC[C@H](C)NC(C)=O)cn3)c(C#N)c2s1` [Compound I-068], the IC50 stood at 25 nM.
Regarding `CCOc1ncc2c(Cl)c(Oc3cnc(OC[C@H](C)NC(C)=O)cn3)ccc2n1` [Compound I-069], the IC50 turned out to be 1400 nM.
The value for `CC(=O)N[C@@H](C)COc1cnc(Oc2ccc3sc(C(C)C)nc3c2Cl)cn1` [Compound I-070] was 469 nM; that for `CCOc1nc2ccc(Oc3cnc(OC[C@H](C)NC(=O)CO)cn3)c(Cl)c2s1` [Compound I-071] was 54 nM.
Consider `CC(=O)N[C@@H](C)COc1cnc(Oc2ccc3nc(N4CC(F)(F)C4)ncc3c2Cl)cn1` [Compound I-072], for which the IC50 was 154 nM.
For `CC(=O)N[C@@H](C)COc1cnc(Oc2ccc3nc(N4CCC(F)(F)CC4)ncc3c2Cl)cn1` [Compound I-073], the IC50 amounted to 221 nM.

As usually defined, the IC50 is the point on the concentration scale where inhibition reaches its midpoint.
